Experimental data: patent US20050019355A1, “Skin antiseptic and disinfectant” (priority 2003, published 2005)

Tested on: E. coli (ATCC 25922)
Experiment: Lower effective concentration of ethyl lactate, modification of AOAC Method 956.17
Assay type: cell-based
Conditions: 15% solution of ethyl lactate, 10 minutes exposure of E. coli
Method: Using a modification of AOAC Method 956.17, the lower effective concentration for ethyl lactate was tested against E. coli (ATCC 25922) at three reaction times at varying concentrations of ethyl lactate. […] [table]

CCOC(=O)C(C)O (stereo not shown) [ethyl lactate]
Bacterial growth after exposure: eliminated bacterial growth
